Test results taken from the supplement of paper PMC11451515.

System: P12-Ichikawa
Experiment: cell viability relative to DMSO control; higher = less cytotoxic
Conditions: 48 h
Method in brief: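 Viability, reported as a per-plate percentage of DMSO wells with cell-free wells as background, came from CellTiter-Glo One luminescence. Reading took place after 48 h at 37°C. Before that, NOMO1 or SEM (500 cells/well) or P12-Ichikawa (1000 cells/well) leukemia cells, adapted for at least four passages in each medium, were seeded in 1536-well plates (5 μl) and pin-dosed with library compounds in DMSO, 47 μM to 0.79 nM over 11 threefold points.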

[1] = HPLM + 10% dialyzed FBS, 0.000781 µM
[2] = HPLM + 10% dialyzed FBS, 0.00234 µM
[3] = HPLM + 10% dialyzed FBS, 0.00702 µM
[4] = HPLM + 10% dialyzed FBS, 0.0211 µM
[5] = HPLM + 10% dialyzed FBS, 0.0632 µM
[6] = HPLM + 10% dialyzed FBS, 0.19 µM
[7] = HPLM + 10% dialyzed FBS, 0.569 µM
[8] = HPLM + 10% dialyzed FBS, 1.71 µM
[9] = HPLM + 10% dialyzed FBS, 5.12 µM
[10] = HPLM + 10% dialyzed FBS, 15.4 µM
[11] = HPLM + 10% dialyzed FBS, 46.1 µM
[12] = RPMI 5 mM glucose + 10% FBS, 0.000781 µM
[13] = RPMI 5 mM glucose + 10% FBS, 0.00234 µM
[14] = RPMI 5 mM glucose + 10% FBS, 0.00702 µM
[15] = RPMI 5 mM glucose + 10% FBS, 0.0211 µM
[16] = RPMI 5 mM glucose + 10% FBS, 0.0632 µM
[17] = RPMI 5 mM glucose + 10% FBS, 0.19 µM
[18] = RPMI 5 mM glucose + 10% FBS, 0.569 µM
[19] = RPMI 5 mM glucose + 10% FBS, 1.71 µM
[20] = RPMI 5 mM glucose + 10% FBS, 5.12 µM
[21] = RPMI 5 mM glucose + 10% FBS, 15.4 µM
[22] = RPMI 5 mM glucose + 10% FBS, 46.1 µM
[23] = RPMI 5 mM glucose + 10% dialyzed FBS, 0.000781 µM
[24] = RPMI 5 mM glucose + 10% dialyzed FBS, 0.00234 µM
[25] = RPMI 5 mM glucose + 10% dialyzed FBS, 0.00702 µM
[26] = RPMI 5 mM glucose + 10% dialyzed FBS, 0.0211 µM
[27] = RPMI 5 mM glucose + 10% dialyzed FBS, 0.0632 µM
[28] = RPMI 5 mM glucose + 10% dialyzed FBS, 0.19 µM
[29] = RPMI 5 mM glucose + 10% dialyzed FBS, 0.569 µM
[30] = RPMI 5 mM glucose + 10% dialyzed FBS, 1.71 µM
[31] = RPMI 5 mM glucose + 10% dialyzed FBS, 5.12 µM
[32] = RPMI 5 mM glucose + 10% dialyzed FBS, 15.4 µM
[33] = RPMI 5 mM glucose + 10% dialyzed FBS, 46.1 µM

Row | SMILES | cell viability [1] | cell viability [2] | cell viability [3] | cell viability [4] | cell viability [5] | cell viability [6] | cell viability [7] | cell viability [8] | cell viability [9] | cell viability [10] | cell viability [11] | cell viability [12] | cell viability [13] | cell viability [14] | cell viability [15] | cell viability [16] | cell viability [17] | cell viability [18] | cell viability [19] | cell viability [20] | cell viability [21] | cell viability [22] | cell viability [23] | cell viability [24] | cell viability [25] | cell viability [26] | cell viability [27] | cell viability [28] | cell viability [29] | cell viability [30] | cell viability [31] | cell viability [32] | cell viability [33]
1 | N[S+]([O-])(=O)C1=CC=C(NC/2=C/C(=O)C3=CC=CC=C3C2=O)C=C1 | 102% | 115% | 119% | 114% | 129% | 120% | 123% | 118% | 117% | 118% | 115% | 110% | 112% | 108% | 112% | 112% | 124% | 125% | 126% | 111% | 124% | 100% | 107% | 114% | 113% | 120% | 117% | 121% | 128% | 124% | 121% | 131% | 105%
2 | CNC(=O)c1ccc2cc(C3(O)CCn4cncc43)ccc2c1 (centres undefined) | 123% | 127% | 115% | 115% | 119% | 123% | 102% | 102% | 108% | 108% | 114% | 123% | 127% | 119% | 127% | 131% | 125% | 129% | 122% | 111% | 133% | 110% | 126% | 117% | 121% | 125% | 118% | 120% | 110% | 117% | 107% | 118% | 105%
3 | CC(C)N[C@@H]1CCn2c(=O)[nH]c3cccc(c32)[C@H]1O | 111% | 112% | 118% | 120% | 117% | 115% | 109% | 112% | 97.1% | 107% | 100% | 129% | 112% | 121% | 122% | 114% | 104% | 116% | 110% | 110% | 113% | 106% | 105% | 104% | 116% | 114% | 109% | 108% | 99.6% | 105% | 104% | 97.9% | 93.8%
4 | OC[C@@H](O)[C@@H](O)[C@H](O)[C@@H](O)CO | 106% | 110% | 107% | 108% | 127% | 127% | 112% | 112% | 124% | 114% | 122% | 116% | 115% | 122% | 123% | 136% | 126% | 132% | 141% | 130% | 135% | 139% | 109% | 109% | 120% | 109% | 123% | 123% | 117% | 120% | 126% | 118% | 127%
5 | CCOC(=O)c1ccc(OC(=O)CCCCCNC(=N)N)cc1 | 117% | 121% | 123% | 122% | 125% | 126% | 124% | 76% | 10.7% | 16.3% | 17.4% | – | – | – | – | – | – | – | – | – | – | – | – | – | – | – | – | – | – | – | – | – | –
6 | O=C(O)Cn1nnc(-c2cc(N3CCC(Oc4cc(F)ccc4Br)CC3)no2)n1 | 97.6% | 114% | 107% | 114% | 116% | 123% | 105% | 112% | 113% | 12% | 11% | 103% | 112% | 109% | 118% | 118% | 122% | 112% | 118% | 112% | 18% | 13.4% | 93.2% | 117% | 111% | 115% | 118% | 116% | 113% | 116% | 114% | 45.6% | 17.9%
7 | O=C(O)C1(Cc2cccc(Nc3nccs3)n2)CCC(Oc2cccc(Cl)c2F)CC1 (centres undefined) | 102% | 111% | 112% | 108% | 115% | 114% | 99.5% | 57.8% | 39.4% | 18.8% | 13.7% | 102% | 116% | 108% | 93.8% | 122% | 111% | 108% | 65.8% | 47.1% | 33.9% | 17.3% | 108% | 116% | 118% | 116% | 116% | 117% | 115% | 68.9% | 65.2% | 33.5% | 31.8%
8 | CC(C)OC(=O)C(C(=O)OC(C)C)=C1S\C=C/S1 | 138% | 124% | 122% | 133% | 113% | 124% | 123% | 124% | 126% | 118% | 101% | – | – | – | – | – | – | – | – | – | – | – | – | – | – | – | – | – | – | – | – | – | –
9 | CC(C)(C#N)c1cc(Cn2cncn2)cc(C(C)(C)C#N)c1 | 120% | 119% | 117% | 119% | 117% | 116% | 115% | 115% | 113% | 108% | 97% | 130% | 118% | 121% | 129% | 120% | 124% | 128% | 131% | 113% | 112% | 112% | – | – | – | – | – | – | – | – | – | – | –
10 | COc1ccc([C@@H]2CC(=O)c3c(O)cc(O[C@@H]4O[C@H](CO[C@@H]5O[C@@H](C)[C@H](O)[C@@H](O)[C@H]5O)[C@@H](O)[C@H](O)[C@H]4O)cc3O2)cc1O | 107% | 109% | 106% | 114% | 120% | 124% | 121% | 118% | 115% | 114% | 116% | 94.2% | 104% | 109% | 93.7% | 107% | 115% | 111% | 119% | 110% | 105% | 103% | 97.3% | 117% | 114% | 111% | 123% | 116% | 126% | 119% | 122% | 111% | 114%
11 | CNCCCC12CCC(c3ccccc31)c1ccccc12 | 93.5% | 95.7% | 96.7% | 95.5% | 103% | 96.2% | 95.8% | 92.7% | 87.8% | 85.8% | 63.5% | 94.1% | 99.5% | 102% | 103% | 104% | 95.9% | 91.8% | 90.2% | 84.4% | 76.6% | 62.6% | 93% | 98.2% | 96.6% | 101% | 98.3% | 88.7% | 97.7% | 85.7% | 86.5% | 73.1% | 54.8%
12 | CC[S+](=O)([O-])c1cccc(-c2cc(C(=O)NC3CCN(C)CC3)c(C)c3[nH]c4ncc(C)cc4c23)c1 | 121% | 122% | 123% | 128% | 123% | 112% | 15.7% | 19.5% | 19% | 26.9% | 34.9% | – | – | – | – | – | – | – | – | – | – | – | – | – | – | – | – | – | – | – | – | – | –
13 | C[C@]12CC[C@H]3[C@@H](CC[C@H]4NC(=O)\C=C/[C@]34C)[C@@H]1CC[C@@H]2C(=O)NC5=CC(=CC=C5C(F)(F)F)C(F)(F)F | 109% | 112% | 112% | 111% | 115% | 111% | 102% | 104% | 91.3% | 107% | 102% | 117% | 108% | 114% | 108% | 111% | 117% | 110% | 105% | 107% | 103% | 104% | 104% | 111% | 109% | 108% | 117% | 99.2% | 99.3% | 98.4% | 96.7% | 106% | 97.5%
14 | CCC[S+]([O-])c1ccc2[nH]c(NC(=O)OC)nc2c1 (centres undefined) | 98.5% | 101% | 95.7% | 96.5% | 101% | 92.7% | 102% | 91.3% | 89.5% | 25.3% | 22.6% | 84.2% | 89.9% | 89% | 89.2% | 89.7% | 93.9% | 99.8% | 85.7% | 82% | 51.1% | 27% | 92.9% | 98.8% | 87.7% | 91.2% | 95.7% | 87% | 86.3% | 84.3% | 90% | 63% | 34.7%
15 | O=c1[nH]c(=O)n([C@H]2C[C@H](O)[C@@H](CO)O2)cc1/C=C/Br | 103% | 126% | 105% | 115% | 102% | 61.2% | 60.8% | 70% | 75.8% | 61.4% | 47.8% | 97.6% | 107% | 103% | 103% | 105% | 110% | 108% | 106% | 107% | 110% | 106% | 92.6% | 104% | 109% | 118% | 112% | 106% | 103% | 108% | 108% | 102% | 100%
16 | CCOC(=O)N1CCN(/[N+]([O-])=N/Oc2ccc([N+](=O)[O-])cc2C#N)CC1 | 97% | 106% | 108% | 107% | 106% | 115% | 113% | 15.9% | 9.82% | 9.87% | 9.31% | 110% | 115% | 117% | 110% | 118% | 115% | 119% | 12.1% | 9.8% | 8.38% | 7.09% | 103% | 101% | 105% | 111% | 113% | 108% | 108% | 16.4% | 10.6% | 9.71% | 9.91%
17 | CN[C@H]1CCC2=CC(=C(OC)C(=C2C/3=C/C=C(OC)\C(=O)/C=C13)OC)OC | 107% | 113% | 104% | 12.9% | 19.9% | 11.1% | 11.2% | 8.53% | 9.25% | 7.37% | 3.31% | 113% | 118% | 102% | 15.9% | 22.2% | 13.3% | 9.95% | 9.19% | 7.3% | 6.54% | 2.29% | 119% | 118% | 102% | 21.1% | 33.4% | 19% | 15.6% | 11.3% | 9.48% | 8.81% | 4.1%
